# Source: the supplement of paper PMC10307832
# How the values were obtained:
# Test in all cases: relative viability (nuclei count vs DMSO), 5 days (fraction); higher = more cells survive
# [1] = compound: O=c1[nH]cc(F)c(=O)[nH]1 [5-Fluorouracil] + Cc1nc(NC(=O)N2CCC[C@H]2C(N)=O)sc1-c1ccnc(C(C)(C)C(F)(F)F)c1 [Alpelisib] (partner 2 µM)
# Outline: (§1)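 Relative viability was taken as the ratio of nuclei in treated wells to nuclei in vehicle wells. Lung cancer cell lines in 1536-well plates received compounds by pin tool one day after seeding, either one drug alone or a fixed anchor-drug dose plus five library-drug doses (not always all listed) in √10 steps. Nuclei were counted on 4× images after 5 days of treatment, and values are medians of duplicate plates.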
# Sulindac + Pemetrexed = compound: CC1=C(CC(=O)O)c2cc(F)ccc2/C1=C\c1ccc([S+](C)[O-])cc1 [Sulindac] + Nc1nc2[nH]cc(CCc3ccc(C(=O)N[C@@H](CCC(=O)O)C(=O)O)cc3)c2c(=O)[nH]1 [Pemetrexed] (partner 0.2 µM)
# Outline: as §1
# [2] = compound: O=c1[nH]cc(F)c(=O)[nH]1 [5-Fluorouracil] + Nc1ncn([C@H]2C[C@H](O)[C@@H](CO)O2)c(=O)n1 [Decitabine] (partner 2 µM)
# Outline: as §1
# Sulindac + Trametinib = compound: CC1=C(CC(=O)O)c2cc(F)ccc2/C1=C\c1ccc([S+](C)[O-])cc1 [Sulindac] + CC(=O)Nc1cccc(-n2c(=O)n(C3CC3)c(=O)c3c(Nc4ccc(I)cc4F)n(C)c(=O)c(C)c32)c1 [Trametinib] (partner 0.02 µM)
# Outline: as §1
Cell Line,relative viability ([1]; first compound 0.02 µM),relative viability ([1]; first compound 0.2 µM),relative viability ([1]; first compound 0.6325 µM),relative viability ([1]; first compound 2 µM),relative viability (Sulindac + Pemetrexed; first compound 0.08 µM),relative viability (Sulindac + Pemetrexed; first compound 0.253 µM),relative viability (Sulindac + Pemetrexed; first compound 0.8 µM),relative viability (Sulindac + Pemetrexed; first compound 2.53 µM),relative viability (Sulindac + Pemetrexed; first compound 8 µM),relative viability ([2]; first compound 0.02 µM),relative viability ([2]; first compound 0.2 µM),relative viability ([2]; first compound 0.6325 µM),relative viability ([2]; first compound 2 µM),relative viability (Sulindac + Trametinib; first compound 0.08 µM),relative viability (Sulindac + Trametinib; first compound 0.253 µM),relative viability (Sulindac + Trametinib; first compound 0.8 µM),relative viability (Sulindac + Trametinib; first compound 2.53 µM),relative viability (Sulindac + Trametinib; first compound 8 µM)
NCI-H1355,0.716,0.551,0.372,0.286,1.02,1.05,0.965,1.02,1.13,0.332,0.332,0.26,0.245,0.389,0.462,0.312,0.43,0.42
EKVX,0.7,,0.153,0.147,0.471,0.421,0.323,0.423,0.433,0.297,,,,0.299,0.34,0.292,0.335,0.333
NCI-H520,0.537,0.975,0.717,0.383,0.893,0.613,0.488,0.642,0.813,0.505,0.556,0.479,0.552,0.787,0.707,0.642,0.691,0.699
NCI-H1993,0.687,0.569,0.608,0.698,0.704,0.575,0.648,0.638,0.551,0.692,0.595,0.541,0.46,0.472,0.569,0.453,0.444,0.585
HCC-78,0.242,0.281,0.235,,0.923,0.878,0.751,0.924,0.953,0.711,0.726,0.427,0.327,0.844,0.865,0.647,0.81,0.824
NCI-H2087,0.977,0.923,0.659,0.536,0.748,0.666,0.741,0.658,0.685,0.244,0.295,0.271,0.224,0.217,0.205,0.158,0.207,0.224
H3255,0.721,0.816,0.833,0.496,0.592,0.573,0.549,0.567,0.568,0.694,0.629,0.645,0.488,0.635,0.661,0.509,0.699,0.656
NCI-H2126,0.668,0.337,0.274,0.272,0.774,0.68,0.658,0.692,0.699,0.518,0.306,0.28,0.258,0.674,0.568,0.553,0.51,0.619
LC-2-ad,0.878,0.884,0.514,0.339,0.29,0.27,0.273,0.263,0.254,0.806,0.725,0.561,0.417,1.02,1.01,0.769,0.928,0.915
SK-LU-1,0.934,1.12,0.868,0.704,1.13,1.05,0.821,1.02,1.02,0.636,0.692,0.592,0.548,0.657,0.486,0.435,0.398,0.529
EBC-1,0.865,0.841,0.792,0.612,,,,,,,,,,,,,,
HCC-15,0.921,0.836,0.494,0.29,0.213,0.223,0.209,0.22,0.235,0.751,0.711,0.63,0.476,0.415,0.395,0.375,0.347,0.283
NCI-H1563,0.772,0.931,0.821,0.841,0.736,0.748,0.683,0.758,0.945,,,,,,,,,
COR-L 105,0.725,1.11,0.874,0.449,1.31,1.14,0.979,1.21,1.2,0.763,0.677,0.719,0.438,0.374,0.472,0.445,0.45,0.449
NCI-H647,0.897,0.915,1.06,0.767,0.212,0.165,0.169,0.182,0.208,0.367,0.383,0.39,0.391,0.577,0.591,0.358,0.472,0.61
LU99A,0.495,0.566,0.47,0.353,0.181,0.159,0.214,0.193,0.179,0.898,0.898,0.731,0.483,0.587,0.585,0.482,0.503,0.687
NCI-H1703,0.279,0.327,0.371,0.359,,,,,,,,,,,,,,
NCI-H2170,0.82,0.734,0.472,0.452,0.282,0.252,0.371,0.267,0.278,0.501,0.451,0.439,0.328,1.24,0.938,0.83,0.936,0.946
NCI-H2342,,,,,0.742,0.714,0.739,0.746,0.781,0.726,0.682,0.698,0.739,0.829,0.81,0.721,0.826,0.825
LCLC-97TM1,0.205,0.224,0.208,0.161,0.205,0.178,0.147,0.177,0.198,0.242,0.269,0.207,0.201,0.25,0.228,0.213,0.171,0.214
